Reference: patent US20240124444A1 (Celgene Corporation, priority 2020, published 2024)

Tested on: C. parvum strain UGA1
Test: C. parvum growth inhibition assay (Nluc luminescence in HCT-8 cells)
Format: cell-based, Cryptosporidium parvum
Conditions: Cryptosporidium parvum, HCT-8; for inhibition at 1 µM: single point inhibition @ 1 uM, read-out: % inh @ 1 uM C. parvum; for inhibition at 10 µM: single point inhibition @ 10 uM, read-out: % inh @ 10 uM C. parvum

Compound	inhibition at 1 µM [%]	inhibition at 10 µM [%]
Cn1c(-c2ccncc2)cc2cnc(Nc3cnn(C4CCOCC4)c3)cc21 [Example 138, 1-methyl-2-(pyridin-4-yl)-N-(1-(tetrahydro-2H-pyran-4-yl)-1H-pyrazol-4-yl)-1H-pyrrolo[3,2-c]pyridin-6-amine]	0 to 33	67 to 100
CCOc1nccc(-c2cc3cnc(NC(=O)CC4COC4)cc3[nH]2)n1 [Example 139, N-(2-(2-ethoxypyrimidin-4-yl)-1H-pyrrolo[3,2-c]pyridin-6-yl)-2-(oxetan-3-yl)acetamide]	0 to 33	67 to 100
COc1cc(Nc2cc3[nH]c(-c4ccncc4)cc3cn2)cc(-n2cncn2)c1 [Example 140, N-(3-methoxy-5-(1H-1,2,4-triazol-1-yl)phenyl)-2-(pyridin-4-yl)-1H-pyrrolo[3,2-c]pyridin-6-amine]	0 to 33	67 to 100
CC(Oc1nccc(-c2cc3cnc(NC(=O)c4cnn(C)c4)cc3[nH]2)n1)C(F)F (stereo not drawn) [Example 141, N-(2-(2-(1,1-difluoropropan-2-yloxy)pyrimidin-4-yl)-1H-pyrrolo[3,2-c]pyridin-6-yl)-1-methyl-1H-pyrazole-4-carboxamide]	0 to 33	67 to 100
O=C(CC1CCOCC1)Nc1cc2[nH]c(-c3ccncc3)cc2cn1 [Example 143, N-(2-(pyridin-4-yl)-1H-pyrrolo[3,2-c]pyridin-6-yl)-2-(tetrahydro-2H-pyran-4-yl)acetamide]	0 to 33	67 to 100
Cn1cc(C(=O)Nc2cc3c(cn2)cc(-c2ccnc(NCC(F)F)n2)n3C)cn1 [Example 144, N-(2-(2-(2,2-difluroethylamino)pyrimidin-4-yl)-1-methyl-1H-pyrrolo[3,2-c]pyridin-6-yl)-1-methyl-1H-pyrazole-4-carboxmaide]	0 to 33	67 to 100
N#Cc1cc2cnc(Nc3cccc(-c4nc[nH]n4)c3)cc2[nH]1 [Example 145, 6-(3-(1H-1,2,4-triazol-3-yl)phenylamino)-1H-pyrrolo[3,2-c]pyridine-2-carbonitrile]	0 to 33	67 to 100
CC(C)n1cc(C(=O)Nc2cc3[nH]c(-c4ccnc(OCCF)n4)cc3cn2)cn1 [Example 146, N-(2-(2-(2-fluoroethoxy)pyrimidin-4-yl)-1H-pyrrolo[3,2-c]pyridin-6-yl)-1-isopropyl-1H-pyrazole-4-carboxamide]	0 to 33	67 to 100
c1ncc(-c2cc3cnc(Nc4cnn(C5CCOCC5)c4)cc3[nH]2)o1 [Example 147, 2-(oxazol-5-yl)-N-(1-(tetrahydro-2H-pyran-4-yl)-1H-pyrazol-4-yl)-1H-pyrrolo[3,2-c]pyridin-6-amine]	0 to 33	67 to 100
COc1cc(Nc2cc3[nH]c(C#N)cc3cn2)cc(C2CCOCC2)c1 [Example 148, 6-(3-methoxy-5-(tetrahydro-2H-pyran-4-yl)phenylamino)-1H-pyrrolo[3,2-c]pyridine-2-carbonitrile]	0 to 33	67 to 100
CC(C)n1cc(C(=O)Nc2cc3[nH]c(-c4ccnc(OC(C)C(F)(F)F)n4)cc3cn2)cn1 (stereo not drawn) [Example 149, 1-isopropyl-N-(2-(2-(1,1,1-trifluoropropan-2-yloxy)pyrimidin-4-yl)-1H-pyrrolo[3,2-c]pyridin-6-yl)-1H-pyrazole-4-carboxamide]	0 to 33	67 to 100
Cc1cc(-c2cc3cnc(Nc4cccc(-c5nc[nH]n5)c4)cc3[nH]2)cc(N)n1 [Example 150, N-(3-(1H-1,2,4-triazol-3-yl)phenyl)-2-(2-amino-6-methylpyridin-4-yl)-1H-pyrrolo[3,2-c]pyridin-6-amine]	0 to 33	67 to 100
N#Cc1cc2cnc(Nc3cnn(C4CCOCC4)c3)cc2[nH]1 [Example 151, 6-(1-(tetrahydro-2H-pyran-4-yl)-1H-pyrazol-4-ylamino)-1H-pyrrolo[3,2-c]pyridine-2-carbonitrile]	0 to 33	67 to 100
O=C(Nc1cc2[nH]c(-c3ccncc3)cc2cn1)c1cnn(C2CCOCC2)c1 [Example 154, N-(2-(pyridin-4-yl)-1H-pyrrolo[3,2-c]pyridin-6-yl)-1-(tetrahydro-2H-pyran-4-yl)-1H-pyrazole-4-carboxamide]	0 to 33	67 to 100
Cc1cc(-c2cc3cnc(NC(=O)C4CCCOC4)cc3[nH]2)ccn1 (stereo not drawn) [Example 155, N-(2-(2-methylpyridin-4-yl)-1H-pyrrolo[3,2-c]pyridin-6-yl)tetrahydro-2H-pyran-3-carboxamide]	0 to 33	67 to 100
CCOc1nccc(-c2cc3cnc(NC(=O)C4C5CCCCC54)cc3[nH]2)n1 (stereo not drawn) [Example 158, N-(2-(2-ethoxypyrimidin-4-yl)-1H-pyrrolo[3,2-c]pyridin-6-yl)bicyclo[4.1.0]heptane-7-carboxamide]	0 to 33	67 to 100
Cn1cc(C(=O)Nc2cc3c(cn2)cc(-c2ccnc(NCC4CC4)n2)n3C)cn1 [Example 159, N-(2-(2-(cyclopropylmethylamino)pyrimidin-4-yl)-1-methyl-1H-pyrrolo[3,2-c]pyridin-6-yl)-1-methyl-1H-pyrazole-4-carboxamide]	0 to 33	67 to 100

Compound	inhibition at 1 µM [%]	inhibition at 10 µM [%]
Cc1cc(-c2cc3cnc(NC(=O)C(C)C)cc3[nH]2)ccn1 [Example 160, N-(2-(2-methylpyridin-4-yl)-1H-pyrrolo[3,2-c]pyridin-6-yl)isobutyramide]	0 to 33	67 to 100
CO[C@H]1C[C@H](C(=O)Nc2cc3[nH]c(-c4ccnc(C)c4)cc3cn2)C1 [Example 161, (1r,3r)-3-methoxy-N-(2-(2-methylpyridin-4-yl)-1H-pyrrolo[3,2-c]pyridin-6-yl)cyclobutanecarboxamide]	0 to 33	67 to 100
CC(C)n1cc(C(=O)Nc2cc3[nH]c(-c4ccncc4)cc3cn2)cn1 [Example 162, 1-isopropyl-N-(2-(pyridin-4-yl)-1H-pyrrolo[3,2-c]pyridin-6-yl)-1H-pyrazole-4-carboxamide]	0 to 33	67 to 100
COc1nccc(-c2cc3cnc(NC(=O)[C@H]4C[C@@H](O)C4)cc3n2C)n1 [Example 163, (1s,3s)-3-hydroxy-N-(2-(2-methoxypyrimidin-4-yl)-1-methyl-1H-pyrrolo[3,2-c]pyridin-6-yl)cyclobutanecarboxamide]	0 to 33	67 to 100
Cn1cc(Nc2cc3[nH]c(C#N)cc3cn2)cn1 [Example 164, 6-(1-methyl-1H-pyrazol-4-ylamino)-1H-pyrrolo[3,2-c]pyridine-2-carbonitrile]	0 to 33	67 to 100
Cc1cc(-c2cc3cnc(NC(=O)CC4COC4)cc3[nH]2)ccn1 [Example 165, N-(2-(2-methylpyridin-4-yl)-1H-pyrrolo[3,2-c]pyridin-6-yl)-2-(oxetan-3-yl)acetamide]	0 to 33	67 to 100
Cc1c(C(=O)Nc2cc3[nH]c(-c4ccncc4)cc3cn2)cnn1C [Example 166, 1,5-dimethyl-N-(2-(pyridin-4-yl)-1H-pyrrolo[3,2-c]pyridin-6-yl)-1H-pyrazole-4-carboxamide]	0 to 33	67 to 100
COc1nccc(-c2cc3cnc(NC(=O)[C@H]4C[C@@H](O)C4)cc3[nH]2)n1 [Example 167, (1s,3s)-3-hydroxy-N-(2-(2-methoxypyrimidin-4-yl)-1H-pyrrolo[3,2-c]pyridin-6-yl)cyclobutanecarboxamide]	33 to 66	67 to 100
Cc1cc(Nc2cc3[nH]c(-c4ccncc4)cc3cn2)nn1C(C)C [Example 168, N-(1-isopropyl-5-methyl-1H-pyrazol-3-yl)-2-(pyridin-4-yl)-1H-pyrrolo[3,2-c]pyridin-6-amine]	33 to 66	67 to 100
CC(C)n1cc(C(=O)Nc2cc3c(cn2)cc(-c2ccnc(NCC(F)F)n2)n3C)cn1 [Example 169, N-(2-(2-(2,2-difluoroethylamino)pyrimidin-4-yl)-1-methyl-1H-pyrrolo[3,2-c]pyridin-6-yl)-1-isopropyl-1H-pyrazole-4-carboxamide]	0 to 33	67 to 100
Cc1cc(-c2cc3cnc(NC(=O)OC4CCCC4)cc3[nH]2)ccn1 [Example 170, cyclopentyl 2-(2-methylpyridin-4-yl)-1H-pyrrolo[3,2-c]pyridin-6-ylcarbamate]	0 to 33	67 to 100
CC(C)n1cc(C(=O)Nc2cc3[nH]c(-c4ccnc(NCC(F)(F)F)n4)cc3cn2)cn1 [Example 172, 1-isopropyl-N-(2-(2-(2,2,2-trifluoroethylamino)pyrimidin-4-yl)-1H-pyrrolo[3,2-c]pyridin-6-yl)-1H-pyrazole-4-carboxamide]	67 to 100	67 to 100
CC(C)n1cc(C(=O)Nc2cc3[nH]c(-c4ccnc(OCC(F)F)n4)cc3cn2)cn1 [Example 173, N-(2-(2-(2,2-difluoroethoxy)pyrimidin-4-yl)-1H-pyrrolo[3,2-c]pyridin-6-yl)-1-isopropyl-1H-pyrazole-4-carboxamide]	0 to 33	67 to 100
COC(=O)Nc1cc2[nH]c(-c3ccnc(C)c3)cc2cn1 [Example 174, methyl 2-(2-methylpyridin-4-yl)-1H-pyrrolo[3,2-c]pyridin-6-ylcarbamate]	0 to 33	67 to 100
CC(C)n1cc(C(=O)Nc2cc3[nH]c(-c4ccnc(OCCC(F)(F)F)n4)cc3cn2)cn1 [Example 175, 1-isopropyl-N-(2-(2-(3,3,3-trifluoropropoxy)pyrimidin-4-yl)-1H-pyrrolo[3,2-c]pyridin-6-yl)-1H-pyrazole-4-carboxamide]	0 to 33	67 to 100
COc1nccc(-c2cc3cnc(NC(=O)C4C5CCCC54)cc3[nH]2)n1 (stereo not drawn) [Example 176, N-(2-(2-methoxypyrimidin-4-yl)-1H-pyrrolo[3,2-c]pyridin-6-yl)bicyclo[3.1.0]hexane-6-carboxamide]	0 to 33	67 to 100
